Test results taken from patent publication US11802305B2, “Detection processes using sites of chromosome interaction” (Oxford Biodynamics PLC, priority 2015, dated 2023).

Legend:
[1] = cited from earlier work
[2] = test system: MYD88 locus; settings: 72 hr treatment with TCP (1 uM), AML cell lines THP-1 and MV4-11, relative to untreated cells
Description: Two AML (acute myeloid leukemia) cell lines THP-1 and MV4-11 were tested with the above compound. […] The positions across the gene have been created and selected based on restriction sites and other features of detection and primer efficiency and were then analysed for interactions. […] Below are the PCR EpiSwitch™ marker results for the MyD88 locus for cell lines THP-1 and MV4-11. FACS analysis was used to sort for the expression of CD11b± cells, as an indicator of differentiation.
However, epigenetic changes observed for chromosome signatures are clean to follow a binary format of 0 or 1.

Row | SMILES | effect on lifespan of ALS patients [1] | fold change at MYD88 locus (GEX and EpiSwitch) [2] [fold]
1 | Nc1nc2ccc(OC(F)(F)F)cc2s1 [riluzole] | modest increase in lifespan | –
2 | N[C@@H]1C[C@H]1c1ccccc1 (racemic) [TCP, tranylcypromine] | – | 1.5
